Laboratory results reported in patent US20060057230A1, “Tea polyphenols bioavailability enhancement method” (priority 2004, published 2006).
Where “and” joins values, the source holds several entries; their conditions need not be identical. Identical values can stand only once. Like-named read-outs stand apart in the source and are kept apart here.

Tests used:
[1] = Plasma total (free and conjugated) catechin Cmax after β-glucuronidase and sulfatase treatment; settings: for form mostly present in plasma: comparing total and free catechin Cmax
Procedure: (§1) During the initial clinic visit, study participants completed a medical history form and underwent a brief physical examination. A fasting blood was collected and subjected to a complete blood count with differential leukocyte count and a comprehensive blood chemistry analysis. Eligible subjects were randomly assigned to one of the Polyphenon E doses (400, 800, and 1200 mg, based on EGCG content) and were required to refrain from the ingestion of tea, apples, chocolate, and their products two weeks prior to the first pharmacokinetic study day and until the end of the second pharmacokinetic study day. The night prior to the first pharmacokinetic study day, subjects fasted after midnight except for water. At approximately either 6 am or 9 am on the morning of the first pharmacokinetic study day, each subject was randomly assigned to receive Polyphenon E at the assigned dose level with or without breakfast. Breakfast consisted of one or two 4-oz muffins.
(§2) Study participants had the option of selecting from three varieties of Otis Spunkmeyer® brand muffins: cheese streusel, wild blueberry, and banana nut flavors. The muffins contain 420 to 480 calories each, with 48-60 grams of carbohydrates, 20-24 grams of fat, and 6 grams of protein. Blood samples were collected prior to and at 0.5, 1, 2, 4, 6, 8, 10, and 24 hours after Polyphenon E administration. Urine samples were collected prior to and up to 24 hours (divided into two intervals: 0-8 and 8-24 hours post-dose) after dosing. Following a one-week wash-out period, study subjects fasted overnight and were crossed-over to receive the same dose of Polyphenon E under the other fasting/fed condition.
(§3) Blood samples were collected into Vacutainer tubes containing sodium heparin. Within 30 minutes of collection, tubes were centrifuged for 10 minutes at 2000 rpm. After centrifugation, plasma was mixed with Vc-EDTA solution (0.4 M NaH2PO4 buffer containing 20% ascorbic acid and 0.1% EDTA, pH 3.6) in the volume ratio of 1:0.02 and stored at −80° C. until sample analysis. Urine specimen container was preadded with 1.38 g NaH2PO4, 1 g ascorbic acid, and 5 mg EDTA to prevent degradation of tea catechins. Urine specimen was kept cold by storing the specimen container in a cooler chest with freezer packs during each collection period. The total volume of each urine sample was measured. An aliquot of urine sample was mixed with the Vc-EDTA solution and stored at −80° C. until sample analysis.
(§4) In brief, for determination of free green tea catechins, plasma or urine samples were extracted with ethyl acetate. The ethyl acetate layer was mixed with a small aliquot of 0.1% ascorbic acid before drying by vacuum centrifugation. The dried residue was re-dissolved in 15% acetonitrile and injected onto HPLC. For determination of the total of free and glucuronic acid/sulfate conjugates of tea catechins, plasma or urine samples were mixed with an aliquot of β-glucuronidase and sulfatase in the presence of ascorbate-EDTA solution. Following pre-treatment, the samples were extracted as described above for the free catechins.
(§5) The HPLC system consisted of an ESA Model 465 refrigerated autosampler, an ESA Model 580 two-pump solvent delivery system, an ESA 5500 coulochem electrode array system (CEAS), and a Supelcosil C18 reversed-phase column (150×4.6 mm; particle size, 5 μm; Supelco Inc., Bellefonte, Pa.). The autosampler and column temperatures were maintained at 6° C. and 35° C., respectively. This assay employed a gradient of two mobile phases. Buffer A consisted of 30 mM NaH2PO4 buffer, acetonitrile, and tetrahydrofuran in the volume ratio of 98.13:1.75:0.12 (pH 3.35). Buffer B consisted of 15 mM NaH2PO4 buffer, acetonitrile, and tetrahydrofuran in the volume ratio of 41.5:58.5:12.5 (pH 3.45). The flow rate was maintained at 1 ml/min. The column was eluted with 96% buffer A and 4% buffer B from 0 to 7 min.

[2] = Plasma free catechin pharmacokinetics after oral Polyphenon E, fasting/fed cross-over; assay type: in vivo, human; settings: for EGCG AUC / EGCG Cmax: oral Polyphenon E 1200 mg dose level
Procedure: Study Design. […] Breakfast consisted of one or two 4-oz muffins.
Sample Collection and Processing. […] The total volume of each urine sample was measured.
Tea Polyphenol Concentration Measurements.
This assay employed a gradient of two mobile phases. […] The flow rate was maintained at 1 ml/min.
The distribution of pharmacokinetic parameter data was normalized by logarithmic transformation prior to statistical analyses. The primary analyses were to determine whether the pharmacokinetics of tea catechins are different under fasting/fed states. Pharmacokinetic parameters such as AUC, Cmax, Tmax, half-life, CL/F, Vd/F, and total amount excreted over 24 hr between the fasting and fed conditions were compared by standard cross-over statistical analyses. The pkcross routine in Stata 8.0 (StataCorp 2003) was used. […] A p<0.05 was considered statistically significant. In secondary analysis, EGCG pharmacokinetic parameters such as CL/F, Vd/F, dose normalized AUC, and dose normalized Cmax were compared among different dose levels using one-way analysis of variance followed by post-hoc t-tests corrected for multiple comparisons. For the post-hoc t-test, a p<0.0167 was considered statistically significant.

[3] = Total catechin recovered in urine over 24 hours after oral Polyphenon E; assay type: in vivo, human; settings: following Polyphenon E administration
Procedure: Blood samples were collected prior to and at 0.5, 1, 2, 4, 6, 8, 10, and 24 hours after Polyphenon E administration. Urine samples were collected prior to and up to 24 hours (divided into two intervals: 0-8 and 8-24 hours post-dose) after dosing.
Sample Collection and Processing. Blood samples were collected into Vacutainer tubes containing sodium heparin. Within 30 minutes of collection, tubes were centrifuged for 10 minutes at 2000 rpm. After centrifugation, plasma was mixed with Vc-EDTA solution (0.4 M NaH2PO4 buffer containing 20% ascorbic acid and 0.1% EDTA, pH 3.6) in the volume ratio of 1:0.02 and stored at −80° C. until sample analysis. Urine specimen container was preadded with 1.38 g NaH2PO4, 1 g ascorbic acid, and 5 mg EDTA to prevent degradation of tea catechins. Urine specimen was kept cold by storing the specimen container in a cooler chest with freezer packs during each collection period. The total volume of each urine sample was measured. […]
The HPLC system consisted of an ESA Model 465 refrigerated autosampler, an ESA Model 580 two-pump solvent delivery system, an ESA 5500 coulochem electrode array system (CEAS), and a Supelcosil C18 reversed-phase column (150×4.6 mm; particle size, 5 μm; Supelco Inc., Bellefonte, Pa.). […] The eluent was monitored by the CEAS with potential settings at −10, 150, 300, and 500 mV. […]

[4] = in vivo
Procedure: as §1, §2, §3, §4, §5

[5] = rats; cited from earlier work
[6] = mice; cited from earlier work
[7] = oral Polyphenon E (400 mg EGCG), Fasting
[8] = oral Polyphenon E (400 mg EGCG), Fed
[9] = oral Polyphenon E (800 mg EGCG), Fasting
[10] = oral Polyphenon E (800 mg EGCG), Fed
[11] = oral Polyphenon E (1200 mg EGCG), Fasting
[12] = oral Polyphenon E (1200 mg EGCG), Fed
[13] = oral Polyphenon E 200 mg (so in the source), Fasting
[14] = oral Polyphenon E 200 mg (so in the source), Fed
[15] = oral Polyphenon E 400 mg, Fasting
[16] = oral Polyphenon E 800 mg, Fasting

With `Oc1cc(O)c2c(c1)O[C@H](c1ccc(O)c(O)c1)[C@H](O)C2` [EC, epicatechin] the “form mostly present in plasma” value [1] was “conjugated forms”, the “free catechin levels in plasma samples” value ([2]; after oral Polyphenon E) was “very low or undetectable” and the “Maximum plasma free catechin concentrations” value [2, 7] was 5.6 ± 7.8 ng/mL. The “Maximum plasma free catechin concentrations” value [2, 8] was 1.6 ± 3.9 ng/mL, the “Maximum plasma free catechin concentrations” value [2, 9] was 1.92 ± 3.4 ng/mL and the “Maximum plasma free catechin concentrations” value [2, 10] was 2.8 ± 5.0 ng/mL. The “Maximum plasma free catechin concentrations” value [2, 11] was 16.6 ± 30.0 ng/mL and the “Maximum plasma free catechin concentrations” value [2, 12] was 10.1 ± 15.3 ng/mL.
With `O=C(O[C@@H]1Cc2c(O)cc(O)cc2O[C@@H]1c1ccc(O)c(O)c1)c1cc(O)c(O)c(O)c1` [ECG, epicatechin gallate] the “urinary total catechin levels” value [3] was “very low or undetectable”, the “form mostly present in plasma” value [1] was “free form” and the Maximum plasma free catechin concentrations [2, 7] was 87.6 ± 62 ng/mL. The “Maximum plasma free catechin concentrations” value [2, 8] was 15.7 ± 8.8 ng/mL, the Maximum plasma free catechin concentrations [2, 9] was 174 ± 141 ng/mL and the “Maximum plasma free catechin concentrations” value [2, 10] was 33.9 ± 11.0 ng/mL. For the same molecule, the Maximum plasma free catechin concentrations [2, 11] was 383 ± 176 ng/mL and the “Maximum plasma free catechin concentrations” value [2, 12] was 112.9 ± 88.2 ng/mL.
For `Oc1cc(O)c2c(c1)O[C@H](c1cc(O)c(O)c(O)c1)[C@H](O)C2` [EGC, epigallocatechin], the “form mostly present in plasma” value [4] was “conjugated forms”.
In the case of `O=C(O[C@@H]1Cc2c(O)cc(O)cc2O[C@@H]1c1cc(O)c(O)c(O)c1)c1cc(O)c(O)c(O)c1` [EGCG, epigallocatechin gallate], the “oral dose available in the systemic blood” value [5] is listed as “less than 2%”, the “urinary total catechin levels” value [3] is listed as “very low or undetectable” and the oral bioavailability [6] is listed as under 13%. For the same molecule, the “form mostly present in plasma” value [1] was “free form”, the “Maximum plasma total catechin concentrations” value [1, 7] was 754.9 ± 399.9^3 ng/ml and the “Maximum plasma total catechin concentrations” value [1, 8] was 174.4 ± 80.6 ng/mL. For the same molecule, the “Maximum plasma total catechin concentrations” value [1, 9] was 1622.7 ± 1501.4^3 ng/ml, the “Maximum plasma total catechin concentrations” value [1, 10] was 360.1 ± 136.9 ng/mL and the “Maximum plasma total catechin concentrations” value [1, 11] was 3988.4 ± 2068.2^3 ng/ml. The “Maximum plasma total catechin concentrations” value [1, 12] was 871.9 ± 625.3 ng/mL, the “AUC of free EGCG” value [2, 13] was 685.53 ± 394.33^2 min · μg/ml and the “CL/F of free EGCG” value [2, 13] was 2.37 ± 1.32^2 L/min. For the same molecule, the “Cmax of free EGCG” value [2, 13] was 3371.6 ± 1651.2^2 ng/ml, the “Tmax of free EGCG” value [2, 13] was 90.60 ± 28.37^3 min and the “t1/2 of free EGCG” value [2, 13] was 228.4 ± 75.3 min. The “AUC of free EGCG” value [2, 14] was 299.40 ± 285.86^2 min · μg/ml, the “CL/F of free EGCG” value [2, 14] was 7.39 ± 4.86 L/min and the “Cmax of free EGCG” value [2, 14] was 923.6 ± 755.3 ng/mL. For the same molecule, the “Tmax of free EGCG” value [2, 14] was 175.10 ± 74.58 min, the “t1/2 of free EGCG” value [2, 14] was 254.9 ± 59.9^4 min and the “AUC of free EGCG” value [2, 15] was 126.96±47.02 min · μg/ml and 126.96 ± 47.02^2 min · μg/ml. The “CL/F of free EGCG” value [2, 15] was 3.64 ± 1.55^2 L/min, the “Cmax of free EGCG” value [2, 15] was 798.7±573.1 ng/ml and 798.7 ± 573.1^2 ng/ml and the “Tmax of free EGCG” value [2, 15] was 93.90 ± 58.99^3 min. For the same molecule, the “t1/2 of free EGCG” value [2, 15] was 170.5 ± 104.6 min, the “AUC of free EGCG” value ([2]; oral Polyphenon E 400 mg, Fed) was 36.70±24.66 min · μg/ml and 36.70 ± 24.66^1 min · μg/ml and the “CL/F of free EGCG” value ([2]; oral Polyphenon E 400 mg, Fed) was 14.53 ± 7.84 L/min. For the same molecule, the “Cmax of free EGCG” value ([2]; oral Polyphenon E 400 mg, Fed) was 141.8 ± 89.1 ng/mL, the “Tmax of free EGCG” value ([2]; oral Polyphenon E 400 mg, Fed) was 122.90 ± 83.70 min and the “t1/2 of free EGCG” value ([2]; oral Polyphenon E 400 mg, Fed) was 145.2 ± 129.1 min. For the same molecule, the “AUC of free EGCG” value [2, 16] was 254.48±214.21 min · μg/ml and 254.48 ± 214.21^2 min · μg/ml, the “CL/F of free EGCG” value [2, 16] was 4.80 ± 2.69^2 L/min and the “Cmax of free EGCG” value [2, 16] was 1522.4±1357.8 ng/ml and 1522.4 ± 1357.8^2 ng/ml. The “Tmax of free EGCG” value [2, 16] was 83.30 ± 31.04^3 min, the “t1/2 of free EGCG” value [2, 16] was 156.5 ± 77.5 min and the “AUC of free EGCG” value ([2]; oral Polyphenon E 800 mg, Fed) was 90.89 ± 37.39 µg·min/mL. The “CL/F of free EGCG” value ([2]; oral Polyphenon E 800 mg, Fed) was 11.63 ± 9.25 L/min, the “Cmax of free EGCG” value ([2]; oral Polyphenon E 800 mg, Fed) was 294.0 ± 113.5 ng/mL and the “Tmax of free EGCG” value ([2]; oral Polyphenon E 800 mg, Fed) was 154.90 ± 78.31 min. The “t1/2 of free EGCG” value ([2]; oral Polyphenon E 800 mg, Fed) was 220.9 ± 209.3 min, the “EGCG AUC” value ([2]; with food) was 299.40 ± 285.86 µg·min/mL and the “EGCG Cmax” value ([2]; with food) was 923.6 ± 755.3 ng/mL. The “EGCG AUC” value ([2]; without food) was 685.53 ± 394.33 µg·min/mL, the “EGCG Cmax” value ([2]; without food) was 3371.6 ± 1651.2 ng/mL and the Maximum plasma free catechin concentrations [2, 7] was 799 ± 573 ng/mL. For the same molecule, the “Maximum plasma free catechin concentrations” value [2, 8] was 141.8 ± 89.1 ng/mL, the “Maximum plasma free catechin concentrations” value [2, 9] was 1522.4 ± 1357.8^3 ng/ml and the “Maximum plasma free catechin concentrations” value [2, 10] was 294.0 ± 113.5 ng/mL. The “Maximum plasma free catechin concentrations” value [2, 11] was 3371.6 ± 1651.2^3 ng/ml and the “Maximum plasma free catechin concentrations” value [2, 12] was 923.6 ± 755.3 ng/mL.
